The values that follow are results of earlier work, collected in patent publication US20070232672A1, “Pharmaceutical Composition And Method For Treating Neurodegenerative Disorders” (Myriad Genetics, Incorporated, priority 2004, published 2007).

Read-outs that look alike come from different tables or passages of the source.

Data set [1] deals with Aβ42. The note with it: CHO cells, Koo et al.
For data set [2] the following is noted: 50 mg and 100 mg doses, human subjects, Lotsch et al.
Data set [3] deals with Aβ42. The note with it: transgenic mouse model, Koo et al.
For data set [4] the following is noted: for efficacy for treating AD: clinical trial (Aisen et al., Reines et al.), rofecoxib at 25 mg daily.
For data set [5] the following is noted: Scali et al.
For data set [6] the following is noted: patients having mild cognitive impairment.

As for `C[C@@H](C(=O)O)c1ccc(-c2ccccc2)c(F)c1` [(R)-2-(2-fluoro-4-biphenylyl)propionic acid], the Aβ42 lowering result with Aβ42 [1] and with Aβ42 [3] was “lower Aβ42” throughout. In data set [2], the analgesic effect entry is “produced an analgesic effect”. The “inhibition of COX activity” value with COX was “negligibly inhibits COX activity”.
Take `CC12CC3CC(C)(C1)CC(N)(C3)C2` [memantine]: the “efficacy in treating mild-to-moderate AD” value in data set [4] (mild-to-moderate AD) is given as “showed efficacy”.
Regarding `COc1ccc2cc([C@H](C)C(=O)O)ccc2c1` [Naproxen], the “efficacy for treating AD” value in data set [4] is “failed to show efficacy”.
For the molecule `CS(=O)(=O)c1ccc(C2=C(c3ccccc3)C(=O)OC2)cc1` [rofecoxib], the neuroprotection result in data set [5] is recorded as “provides neuroprotection”. Moreover, the “efficacy for treating AD” value in data set [4] is recorded as “failed to show efficacy”. Also, the “prevention of the development of Alzheimer's disease” value in data set [6] (large prevention trial) was “failed to prevent the development of Alzheimer's disease”. In data set [6] (placebo 4.5%), the “patients who developed AD” value was 6.4%.
